What was measured:
[1] = Bile excretion of compound in bile duct-cannulated orally dosed cynomolgus monkey within 48 hrs; format: ADME, organism-based, Macaca fascicularis; conditions: po, read-out: Activity
[2] = biological target: T1, Peroxisome proliferator-activated receptor alpha (Homo sapiens, UniProt Q07869); assay: Binding affinity at PPAR alpha receptor
T1 sequence (Q07869 whole entry): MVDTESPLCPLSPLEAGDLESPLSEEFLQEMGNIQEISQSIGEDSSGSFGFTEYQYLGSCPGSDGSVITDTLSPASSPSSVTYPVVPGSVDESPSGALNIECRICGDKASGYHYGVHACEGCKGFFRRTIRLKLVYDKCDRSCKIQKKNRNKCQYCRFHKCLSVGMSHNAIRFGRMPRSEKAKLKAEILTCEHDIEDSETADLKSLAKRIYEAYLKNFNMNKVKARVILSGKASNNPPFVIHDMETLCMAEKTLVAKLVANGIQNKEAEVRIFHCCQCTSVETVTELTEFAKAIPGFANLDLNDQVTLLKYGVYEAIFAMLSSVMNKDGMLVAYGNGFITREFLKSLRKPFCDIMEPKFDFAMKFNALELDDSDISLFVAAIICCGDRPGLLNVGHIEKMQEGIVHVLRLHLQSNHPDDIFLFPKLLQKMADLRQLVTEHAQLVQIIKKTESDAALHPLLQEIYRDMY

[3] = biological target: T2, Peroxisome proliferator-activated receptor gamma (Homo sapiens, UniProt P37231); assay: Binding affinity at PPAR gamma receptor
T2 sequence (P37231 whole entry): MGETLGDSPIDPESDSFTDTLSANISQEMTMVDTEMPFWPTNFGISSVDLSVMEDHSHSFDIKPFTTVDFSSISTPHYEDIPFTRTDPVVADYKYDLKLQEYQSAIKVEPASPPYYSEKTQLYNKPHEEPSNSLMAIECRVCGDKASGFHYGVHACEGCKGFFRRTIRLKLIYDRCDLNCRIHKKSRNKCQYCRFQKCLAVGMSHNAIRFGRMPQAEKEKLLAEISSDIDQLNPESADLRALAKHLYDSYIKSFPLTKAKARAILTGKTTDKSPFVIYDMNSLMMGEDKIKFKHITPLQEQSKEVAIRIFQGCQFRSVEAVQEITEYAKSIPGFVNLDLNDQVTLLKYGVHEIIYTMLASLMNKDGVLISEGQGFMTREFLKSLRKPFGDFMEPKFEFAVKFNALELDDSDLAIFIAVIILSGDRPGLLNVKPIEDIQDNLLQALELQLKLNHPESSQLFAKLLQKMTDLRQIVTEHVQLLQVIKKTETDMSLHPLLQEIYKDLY

[4] = biological target: T3, Peroxisome proliferator-activated receptor alpha (Homo sapiens) (UniProt Q07869); assay: Intrinsic activity at PPAR alpha in human HEK cells at 1 uM by transactivation assay; format: cell-based; conditions: HEK293
T3 sequence (whole entry): T1 sequence (Q07869 whole entry)

[5] = biological target: T3, Peroxisome proliferator-activated receptor alpha (Homo sapiens); assay: (§1) Agonist activity at PPAR alpha in human HEK cells by transactivation assay; format: functional, cell-based; conditions: HEK293
[6] = biological target: T1, Peroxisome proliferator-activated receptor alpha; assay: as §1; format: functional, cell-based, HEK293
[7] = Bile excretion of compound in bile duct-cannulated orally dosed Sprague-Dawley rat within 24 hrs; format: ADME, organism-based; conditions: po, read-out: Activity
[8] = Half life in Beagle dog at 2 mg/kg, po after 12 hrs; format: ADME, organism-based, Canis lupus familiaris; parameters: dose 2 mg/kg, route oral; conditions: in vivo
[9] = Tmax in cynomolgus monkey at 1.9 mg/kg, po after 144 hrs; format: ADME, organism-based, Macaca fascicularis; parameters: dose 1.9 mg/kg, route oral; conditions: in vivo
[10] = Half life in human at 10 mg, po after 192 hrs; format: ADME, organism-based; conditions: in vivo
[11] = Tmax in human at 10 mg, po after 192 hrs; format: ADME, organism-based; conditions: in vivo
[12] = Tmax in Beagle dog at 2 mg/kg, po after 12 hrs; format: ADME, organism-based, Canis lupus familiaris; parameters: dose 2 mg/kg, route oral; conditions: in vivo
[13] = Cmax in Beagle dog at 2 mg/kg, po after 12 hrs; format: ADME, organism-based, Canis lupus familiaris; parameters: dose 2 mg/kg, route oral; conditions: in vivo
[14] = Cmax in cynomolgus monkey at 1.9 mg/kg, po after 144 hrs; format: ADME, organism-based, Macaca fascicularis; parameters: dose 1.9 mg/kg, route oral; conditions: in vivo
[15] = Tmax in Sprague-Dawley rat at 10 mg/kg, po after 96 hrs; format: ADME, organism-based; parameters: dose 10 mg/kg, route oral; conditions: in vivo
[16] = AUC (0 to T) in cynomolgus monkey at 1.9 mg/kg, po after 144 hrs; format: ADME, organism-based, Macaca fascicularis; parameters: time < 144 hr, dose 1.9 mg/kg, route oral; conditions: plasma
[17] = AUC (0 to T) in Sprague-Dawley rat at 10 mg/kg, po after 96 hrs; format: ADME, organism-based; parameters: time < 96 hr, dose 10 mg/kg, route oral; conditions: plasma
[18] = AUC (0 to T) in human at 10 mg, po after 192 hrs; format: ADME, organism-based; parameters: dose 10 mg, time < 192 hr, route oral; conditions: plasma
[19] = Cmax in Sprague-Dawley rat at 10 mg/kg, po after 96 hrs; format: ADME, organism-based; parameters: dose 10 mg/kg, route oral; conditions: in vivo
[20] = Half life in cynomolgus monkey at 1.9 mg/kg, po after 144 hrs; format: ADME, organism-based, Macaca fascicularis; parameters: dose 1.9 mg/kg, route oral; conditions: in vivo
[21] = Cmax in human at 10 mg, po after 192 hrs; format: ADME, organism-based; parameters: dose 10 mg, route oral; conditions: in vivo
[22] = Half life in Sprague-Dawley rat at 10 mg/kg, po after 96 hrs; format: ADME, organism-based; parameters: dose 10 mg/kg, route oral; conditions: in vivo
[23] = AUC (0 to T) in Beagle dog at 2 mg/kg, po after 12 hrs; format: ADME, organism-based, Canis lupus familiaris; parameters: time < 12 hr, dose 2 mg/kg, route oral; conditions: plasma

dose excreted at 48 h [1] | IC50 [2] | IC50 [3] | EC50 [6] | SMILES | also measured
< 5% | 0.099 µM | 2.05 µM | 0.26 µM | COc1ccc(OC(=O)N(CC(=O)O)Cc2ccc(OCCc3nc(-c4ccc(O)cc4)oc3C)cc2)cc1 | Intrinsic activity [4]: 78%; %max [5]: 93%
< 5% | > 15 µM | > 15 µM | 18.1 µM | O=C(O)CN(Cc1ccc(OCCc2nc(-c3ccccc3)oc2CO)cc1)C(=O)Oc1ccc(O)cc1 | Intrinsic activity [4]: 2%; %max [5]: 69%
< 5% | – | – | – | Cc1oc(-c2ccccc2)nc1CC(O)Oc1ccc(CN(CC(=O)O)C(=O)Oc2ccc(O)cc2)cc1 (configuration not stated) | –
< 5% | 3.74 µM | > 15 µM | 6.89 µM | Cc1oc(-c2ccccc2)nc1CCOc1ccc(CN(CC(=O)O)C(=O)Oc2ccc(O)cc2)cc1 | dose excreted at 24 h [7]: 11%; Intrinsic activity [4]: 6%; %max [5]: 78%
< 5% | – | – | – | COc1ccc(OC(=O)N(CC(=O)O)Cc2ccc(OC(O)Cc3nc(-c4ccccc4)oc3CO)cc2)cc1 (configuration not stated) | –
< 5% | – | – | – | Cc1oc(-c2ccccc2)nc1C(O)COc1ccc(CN(CC(=O)O)C(=O)Oc2ccc(O)cc2)cc1 (configuration not stated) | –
< 5% | – | – | – | COc1ccc(OC(=O)N(CC(=O)O)Cc2ccc(OCC(O)c3nc(-c4ccccc4)oc3CO)cc2)cc1 (configuration not stated) | –
< 5% | – | – | – | COc1ccc(OC(=O)N(CC(=O)O)Cc2ccc(OCCc3nc(-c4ccc(O)cc4)oc3CO)cc2)cc1 | –
< 5% | – | – | – | Cc1oc(-c2ccc(O)cc2)nc1CCOc1ccc(CN(CC(=O)O)C(=O)Oc2ccc(O)cc2)cc1 | –
< 5% | – | – | – | O=C(O)CN(Cc1ccc(O)cc1)C(=O)Oc1ccc(O)cc1 | –
< 5% | – | – | – | Cc1oc(-c2ccc(O[C@@H]3O[C@H](C(=O)O)[C@@H](O)[C@H](O)[C@H]3O)cc2)nc1CCOc1ccc(CN(CC(=O)O)C(=O)Oc2ccc(O)cc2)cc1 | –
< 5% | > 15 µM | > 15 µM | > 25 µM | COc1ccc(OC(=O)N(CC(=O)O)Cc2ccc(OCCC(=O)N(C(C)=O)C(=O)c3ccccc3)cc2)cc1 | –
< 5% | – | – | – | COc1ccc(OC(=O)N(CC(=O)O)Cc2ccc(OCC(O)c3nc(-c4ccccc4)oc3C)cc2)cc1 (configuration not stated) | –
< 5% | > 15 µM | > 15 µM | > 25 µM | COc1ccc(OC(=O)N(CC(=O)O)Cc2ccc(OCCC(=O)NC(=O)c3ccccc3)cc2)cc1 | –
< 5% | – | – | – | COc1ccc(OC(=O)N(CC(=O)O)Cc2ccc(OC(O)Cc3nc(-c4ccc(O)cc4)oc3C)cc2)cc1 (configuration not stated) | –
< 5% | 3.09 µM | > 15 µM | 1.94 µM | COc1ccc(OC(=O)N(CC(=O)O)Cc2ccc(OCCc3nc(-c4ccccc4)oc3CO)cc2)cc1 | Intrinsic activity [4]: 24%; %max [5]: 88%
< 5% | > 15 µM | > 15 µM | > 25 µM | COc1ccc(OC(=O)N(CC(=O)O)Cc2ccc(O)cc2)cc1 | –
< 5% | – | – | – | COc1ccc(OC(=O)N(CC(=O)O)Cc2ccc(OCCc3nc(-c4ccccc4)oc3C(=O)O)cc2)cc1 | –
– | – | – | – | COc1ccc(OC(=O)N(CC(=O)O)Cc2ccc(OCCc3nc(-c4ccccc4)oc3C)cc2)cc1 | Intrinsic activity [4]: 120%

SMILES | dose excreted at 48 h [1] | IC50 [2] | IC50 [3] | EC50 [6] | also measured
COc1ccc(OC(=O)N(CC(=O)O)Cc2ccc(OCCc3nc(-c4ccccc4)oc3C)cc2)cc1.Cl [MURAGLITAZAR CHLORIDE] | – | 0.188 µM | – | 0.035 µM | half-life [8]: 5.7 h; Tmax [9]: 1 h; half-life [10]: 35.1 h; Tmax [11]: 1 h; Tmax [12]: 0.5 h; Cmax [13]: 800 ng/mL; Cmax [14]: 6900 ng/mL; Tmax [15]: 0.5 h; AUC(0-t) at 144 h [16]: 41000 ng·h/mL; AUC(0-t) at 96 h [17]: 101000 ng·h/mL; AUC(0-t) at 192 h [18]: 12000 ng·h/mL; Cmax [19]: 12800 ng/mL; half-life [20]: 18 h; Cmax [21]: 1800 ng/mL; half-life [22]: 10.3 h; AUC(0-t) at 12 h [23]: 1300 ng·h/mL
